The source of these data is patent US3952101A, “α-Amino methyl-5-hydroxy-2-pyridinemethanols” (SmithKline Corporation, priority 1975, dated 1976).

The test system of assay [1] is guinea pig tracheal chain preparations. The assay can be described thus: effect on spontaneous tone of guinea pig tracheal chain preparations (β-stimulant direct relaxant effect on airway smooth muscle). Format: cell-based. From the text: (§1) Two in vitro test systems used for determining selective β-stimulant activity are: (1) effect on spontaneous tone of guinea pig tracheal chain preparations as a measure of β-stimulant (direct relaxant) effect on airway smooth muscle, and (2) effect on rate of spontaneously beating right atria of the guinea pig as a measure of β-stimulant effect on cardiac muscle.

A further assay concerns guinea pig right atria. The experiment in a line: effect on rate of spontaneously beating right atria of the guinea pig (β-stimulant effect on cardiac muscle). As to conditions: Cavia porcellus; in vitro, at a dose of 30.0 mcg/ml; read-out: increase in the rate of contraction of guinea pig right atria. Format: cell-based.
Source text: as §1

Molecules are shown by their SMILES. Converted amounts (≈) assume the structure as drawn.

In the case of `CC(C)(C)NCC(O)c1ccc(O)c(CS(C)(=O)=O)n1` (stereo not drawn) [α-(t-butylaminomethyl)-5-hydroxy-6-methanesulfonylmethyl-2-pyridinemethanol], in assay [1] (Cavia porcellus, in vitro, spontaneous tone, read-out: ED50, relaxes the spontaneous tone of guinea pig tracheal ring preparation), the EC50 is 8.8 ng/mL (≈ 0.0291 µM). Further, the activation at 30 µg/mL in the assay with guinea pig right atria worked out at 13%.

For the compound `CC(C)NCC(O)c1ccc(O)c(O)c1` (stereo not drawn) [d,1-isoproterenol, reference compound], the absolute separation ratio in assay [1] (tracheal versus right atria activity, similar in vitro preparations) is given as 0.5.
